Experimental findings from patent publication US8207218B2, “DMAE as sole agent for the treatment of mild cognitive impairment” (Pierre Fabre Medicament, priority 2006, dated 2012) are described below.

Assay [1] concerns healthy individuals with memory loss induced by injection of scopolamine. Put plainly: Attention (Digit Symbol Substitution Test), alertness and mood (EVA by Bond and Lader), reaction times, after scopolamine. Format: in vivo. As to conditions: 24 healthy individuals, repeated oral doses. On the procedure:
(§1) Under the present invention, the activity of DMAE and its salts and esters, and the hydrates and solvates, was assessed in a population in whom this memory disorder was induced by injection of scopolamine, to reproduce the profile of the target population.
(§2) The medications given were in forms suitable to be taken via oral route, corresponding to dosage units allowing daily doses in the order of 100 mg to 3 g, advantageously 300 mg to 3 g of active ingredient in adults, particularly in the order of 1500 mg per day. The tested medications led to plasma levels corresponding to a Cmax peak of around 1.5 μg/ml of DMAE and/or around 24 ng/ml of pGlu (pyroglutamic acid).
(§3) The Applicant conducted the following tests: • Memory test: Buschke Selective Reminding Test, • Attention test: Digit Symbol Substitution Test (90″) • Assessment of alertness and mood: EVA by Bond and Lader, • Sensory-motor performance tests: reaction times (total, decisional and motor)

The test system is the same in assay [2]. Put plainly: Buschke Selective Reminding Test, memory loss induced by injection of scopolamine (cross-over study). The class given is in vivo. As to conditions: 24 healthy individuals, repeated oral doses. On the procedure: as §1, §2, §3
The main results observed are given in the graphs of the appended FIGS. 1 to 4 in which: • LTS designates the number of words acquired in long-term storage, • LTR designates the number of words retrieved from long-term memory in each test i.e. the words belonging to LTS and which are recalled for the test in progress, and • CLTR designates the number of words which are consistently acquired i.e. which are recalled during subsequent tests.

Regarding `CN(C)CCO` [DMAE, dimethylaminoethanol], the “impact on the other cognitive components tested such as alertness, attention” value in assay [1] was “without any impact”. The “effect on memory performance levels” value in assay [2] is “specific effect on memory performance levels”.
In the case of `CN(C)CCO.O=C1CC[C@@H](C(=O)O)N1` [DMAE pyroglutamate], the “impact on the other cognitive components tested such as alertness, attention” value in assay [1] was “without any impact”. Further, the “effect on memory performance levels” value in assay [2] is recorded as “specific effect on memory performance levels”.
